Results: ChEMBL document CHEMBL2311484, “Synthesis and biological evaluation of a new series of phenothiazine-containing protein farnesyltransferase inhibitors” (Eur J Med Chem, 2013)

What follows are compounds tested against Protein farnesyltransferase (Homo sapiens, UniProt P49354+P49356) (assay: Inhibition of human recombinant FTase activity using dansyl-GCVLS-peptide).
Assay type: protein-complex assay

Row | SMILES | IC50 [µM]
1 | N#CC(C#N)=CC(C(=O)N1c2ccccc2Sc2ccccc21)[n+]1ccccc1 (stereo not drawn) | 13.1
2 | CCOC(=O)/C(C#N)=C/C(C(=O)N1c2ccccc2Sc2ccccc21)[n+]1ccccc1 (stereo not drawn) | 15
3 | Cc1ccc[n+](C(C=C(C#N)C#N)C(=O)N2c3ccccc3Sc3ccccc32)c1 (stereo not drawn) | 11
4 | CCOC(=O)/C(C#N)=C/C(C(=O)N1c2ccccc2Sc2ccccc21)[n+]1cccc(C)c1 (stereo not drawn) | 7.01
5 | COc1cc[n+](C(C=C(C#N)C#N)C(=O)N2c3ccccc3Sc3ccccc32)cc1 (stereo not drawn) | 10.3
6 | CCOC(=O)/C(C#N)=C/C(C(=O)N1c2ccccc2Sc2ccccc21)[n+]1ccc(OC)cc1 (stereo not drawn) | 13.7
7 | Cc1cc(C)c[n+](C(C=C(C#N)C#N)C(=O)N2c3ccccc3Sc3ccccc32)c1 (stereo not drawn) | 6.36
8 | CCOC(=O)/C(C#N)=C/C(C(=O)N1c2ccccc2Sc2ccccc21)[n+]1cc(C)cc(C)c1 (stereo not drawn) | 7.27
9 | CCOC(=O)/C(C#N)=C\C=C1C=CN(CC(=O)N(CC)CC)C=C1 | 43.1
10 | CCOC(=O)/C(C#N)=C/C(C(=O)N1c2ccccc2Sc2ccccc21)[n+]1ccc(N(C)C)cc1 (stereo not drawn) | 5.33
11 | CN(C)c1cc[n+](C(/C=C/C(=O)O)C(=O)N2c3ccccc3Sc3ccccc32)cc1 (stereo not drawn) | 86.5

The next compounds have a lower IC50 than those just listed; values first:

Row | IC50 [µM] | SMILES
12 | 3.18 | CN(C)c1cc[n+](C(C=C(C#N)C#N)C(=O)N2c3ccccc3Sc3ccc(Cl)cc32)cc1 (stereo not drawn)
13 | 4.92 | CCOC(=O)/C(C#N)=C/C(C(=O)N1c2ccccc2Sc2ccc(Cl)cc21)[n+]1ccc(N(C)C)cc1 (stereo not drawn)
14 | 0.65 | N#CC(C#N)=CC=C1C=CN(CC(=O)N2c3ccccc3Sc3ccccc32)C=C1
15 | 0.63 | CCOC(=O)/C(C#N)=C\C=C1C=CN(CC(=O)N2c3ccccc3Sc3ccccc32)C=C1
16 | 1.2 | N#CC(C#N)=C/C=C1\C=CC=CN1CC(=O)N1c2ccccc2Sc2ccccc21
17 | 1.07 | CCOC(=O)/C(C#N)=C\C=C1/C=CC=CN1CC(=O)N1c2ccccc2Sc2ccccc21
18 | 4.67 | CN(C)c1cc[n+](C(C=C(C#N)C#N)C(=O)N2c3ccccc3Sc3ccccc32)cc1 (stereo not drawn)
